Converted amounts (≈) assume the structure as drawn. Counter-ions that a name gives are not always drawn. Like-named read-outs stand apart in the source and are kept apart here.
Legend:
E. coli 25922 = experiment: Intrinsic MIC assay (CLSI broth microdilution); format: cell-based, Escherichia coli; conditions: read-out: Antibiotic Activity Against E. coli Intrinsic MIC
From the text: As used herein, the term “minimum inhibitory concentration (MIC)” refers to the lowest concentration of a compound (e.g., an antibiotic) that prevents visible growth of a bacterium. Assays for measuring the MIC of a compound are known in the art, for example, as described herein. As used herein, the term “intrinsic MIC” refers the MIC of a compound (e.g., an antibiotic) for the particular bacterial species that has not been pre-exposed to the compound. Intrinsic MIC Assays MIC assays were conducted in accordance with Clinical and Laboratory Standards Institute (CLSI) guidelines for broth microdilution. A 96-well plate containing cation-adjusted Mueller-Hinton (CAMH broth with 2-fold serial dilution of compounds was inoculated with log-phase bacterial at 5×10^5 CFU/mL. The final volume in each well was 100 μL. Each compound was tested in duplicate. The microtiter plates were incubated in an aerobic environment for 18 hours at 37° C. Then the bacterial growth was tested by reading the plate with a VersaMax plate reader (Molecular Devices, Inc.) at 600 nm. The MIC was defined as the lowest compound concentration that inhibited 90% of bacteria growth. The intrinsic MIC of the experimental EPIs was tested with the method described. […] The following Gram-negative bacterial strains were included in these assays: Escherichia coli ATCC 25922

P. aeruginosa PAO1 [1] = experiment: Intrinsic MIC assay (CLSI broth microdilution); format: cell-based; conditions: Pseudomonas aeruginosa, read-out: Antibiotic Activity Against P. aeruginosa Intrinsic MIC
From the text: As used herein, the term “minimum inhibitory concentration (MIC)” refers to the lowest concentration of a compound (e.g., an antibiotic) that prevents visible growth of a bacterium. Assays for measuring the MIC of a compound are known in the art, for example, as described herein. As used herein, the term “intrinsic MIC” refers the MIC of a compound (e.g., an antibiotic) for the particular bacterial species that has not been pre-exposed to the compound. Intrinsic MIC Assays MIC assays were conducted in accordance with Clinical and Laboratory Standards Institute (CLSI) guidelines for broth microdilution. A 96-well plate containing cation-adjusted Mueller-Hinton (CAMH broth with 2-fold serial dilution of compounds was inoculated with log-phase bacterial at 5×10^5 CFU/mL. The final volume in each well was 100 μL. Each compound was tested in duplicate. The microtiter plates were incubated in an aerobic environment for 18 hours at 37° C. Then the bacterial growth was tested by reading the plate with a VersaMax plate reader (Molecular Devices, Inc.) at 600 nm. The MIC was defined as the lowest compound concentration that inhibited 90% of bacteria growth. The intrinsic MIC of the experimental EPIs was tested with the method described. […] The following Gram-negative bacterial strains were included in these assays: Pseudomonas aeruginosa PAO1

P. aeruginosa PAO1 [2] = experiment: MIC assay in the presence of a bacterial efflux pump inhibitor (EPI); format: cell-based, Pseudomonas aeruginosa
Protocol: The ability of a compound to produce an antibiotic effect can be determined using a method as described in Example 42. […] MIC assays were conducted in accordance with Clinical and Laboratory Standards Institute (CLSI) guidelines for broth microdilution. A 96-well plate containing cation-adjusted Mueller-Hinton (CAMH broth with 2-fold serial dilution of compounds was inoculated with log-phase bacterial at 5×10^5 CFU/mL. The final volume in each well was 100 μL. Each compound was tested in duplicate. The microtiter plates were incubated in an aerobic environment for 18 hours at 37° C. Then the bacterial growth was tested by reading the plate with a VersaMax plate reader (Molecular Devices, Inc.) at 600 nm. The MIC was defined as the lowest compound concentration that inhibited 90% of bacteria growth. MIC Assays in the Presence of a Bacterial Efflux Inhibitor The EPI assay for the purposes of these studies represents a MIC assay in which the MIC of the antibiotic against the bacteria is tested in the presence of an experimental efflux pump inhibitor (EPI). The highest concentration of the EPI present in the assay typically is ½ of the intrinsic MIC of the compound. […] Using serial dilutions of the EPI, its enhancement of antibiotic activity was then evaluated. The relative EPI activity was decided by comparing the MIC of the antibiotic in the presence of the EPI compound with the intrinsic MIC of the antibiotic alone. For comparative purposes, we generally used EPIs at concentration of 12.5 and 6.25 μg/ml against varying concentration of our test antibiotic.

[3] = Escherichia coli, 18 h, E. coli 25922, compound alone, without EPI
[4] = 18 h, P. aeruginosa PAO1, compound alone, without EPI, MIC = lowest concentration inhibiting 90% of growth
[5] = P. aeruginosa PAO1, fold enhancement with 12.5 ug/ml EPI
[6] = P. aeruginosa PAO1, with 12.5 ug/ml of EPI (2S,4R)-4-(ammoniomethyl)-2-((6-(4-fluorophenyl)-1H-indole-2-carboxamido)methyl)pyrrolidin-1-ium

Compound | MIC (E. coli 25922; [3]) [µg/mL] | MIC (P. aeruginosa PAO1 [1]; [4]) [µg/mL] | Enhancement (intrinsic MIC versus MIC with EPI) (P. aeruginosa PAO1 [2]; [5]) | Antibiotic Activity Against P. aeruginosa MIC with EPI (P. aeruginosa PAO1 [2]; [6]) [µg/mL] | MIC (E. coli 25922; Escherichia coli, 25922, 18 h) [µg/mL] | MIC (P. aeruginosa PAO1 [1]; PAO1, 18 h) [µg/mL] | Antibiotic Activity Against P. aeruginosa MIC with EPI (P. aeruginosa PAO1 [2]) [µg/mL] | Enhancement (intrinsic MIC versus MIC with EPI) (P. aeruginosa PAO1 [2])
NC1CC(CO)Cc2c1[nH]c1ccc(Br)cc21 (stereo not drawn) [Example 29, (1-Amino-6-bromo-2,3,4,9-tetrahydro-1H-carbazol-3-yl)methanol] | 64 (≈ 217 µM) | 256 (≈ 867 µM) | (8x) | 32 |  |  |  | 
NC1CCCc2c1[nH]c1ccc(Br)cc21 (stereo not drawn) [Example 1, 6-Bromo-2,3,4,9-tetrahydro-1H-carbazol-1-amine] | 8 (≈ 30.2 µM) | 32 (≈ 121 µM) | (64x) | 0.5 |  |  |  | 
NC1CCCc2c1[nH]c1cc(Cl)c(Cl)cc21 (stereo not drawn) [Example 21, 6,7-Dichloro-2,3,4,9-tetrahydro-1H-carbazol-1-amine] | 8 (≈ 31.4 µM) | 64 (≈ 251 µM) | (16x) | 4 |  |  |  | 
NCCNC(=O)C1Cc2c([nH]c3ccc(Br)cc23)C(N)C1 (stereo not drawn) [Example 32, 1-Amino-N-(2-aminoethyl)-6-bromo-2,3,4,9-tetrahydro-1H-carb azole-3-carboxamide] | > 256 | > 256 | (1x) | >256 |  |  |  | 
CC(C)C1Cc2c([nH]c3cc(Cl)c(Cl)cc23)C(N)C1 (stereo not drawn) [Example 38, 6,7-Dichloro-3-isopropyl-2,3,4,9-tetrahydro-1H-carbazol-1-amine] | 4 (≈ 13.5 µM) | > 256 | (>64x) | 4 |  |  |  | 
CC(C)(C)OC(=O)NC1CCCc2c1[nH]c1ccc(Br)cc21 (stereo not drawn) [Example 6, Tert-Butyl (6-bromo-2,3,4,9-tetrahydro-1H-carbazol-1-yl)carbamate] | > 256 | > 256 | (4x) | >64 |  |  |  | 
COc1ccc(-c2ccc3[nH]c4c(c3c2)CCCC4N)cc1 (stereo not drawn) [Example 3, 6-(4-Methoxyphenyl)-2,3,4,9-tetrahydro-1H-carbazol-1-amine] | 32 (≈ 109 µM) | > 256 | (>16x) | 16 |  |  |  | 
N#Cc1ccc2[nH]c3c(c2c1)CCCC3N (stereo not drawn) [Example 16, 1-Amino-2,3,4,9-tetrahydro-1H-carb azole-6-carbonitrile] | 256 (≈ 1210 µM) | > 256 | (>8x) | 32 |  |  |  | 
CC1CCc2c([nH]c3ccc(Br)cc23)C1N (stereo not drawn) [Example 23, 6-Bromo-2-methyl-2,3,4,9-tetrahydro-1H-carbazol-1-amine] | 16 (≈ 57.3 µM) | 256 (≈ 917 µM) | (16x) | 16 |  |  |  | 
NC1CCCc2c1[nH]c1ccc(Cl)c(Cl)c21 (stereo not drawn) [Example 22, 5,6-Dichloro-2,3,4,9-tetrahydro-1H-carbazol-1-amine] | 4 (≈ 15.7 µM) | 32 (≈ 125 µM) | (>256x) | <0.125 |  |  |  | 
NC1CCCc2c1[nH]c1ccc(-c3ccc(F)cc3)cc21 (stereo not drawn) [Example 2, 6-(4-Fluorophenyl)-2,3,4,9-tetrahydro-1H-carbazol-1-amine] | 16 (≈ 57.1 µM) | 256 (≈ 913 µM) | (64x) | 4 |  |  |  | 
NC1CC(CN2CCOCC2)Cc2c1[nH]c1ccc(Br)cc21 (stereo not drawn) [Example 31, 6-Bromo-3-(morpholinomethyl)-2,3,4,9-tetrahydro-1H-carbazol-1-amine] | 64 (≈ 176 µM) | 256 (≈ 703 µM) | (4x) | 64 |  |  |  | 
CC(C)(C)OC(=O)NC1CCCc2c1[nH]c1cc(Br)ccc21 (stereo not drawn) [Example 11, Tert-Butyl (7-bromo-2,3,4,9-tetrahydro-1H-carbazol-1-yl)carbamate] | > 256 | > 256 | (4x) | >64 |  |  |  | 
CC(C)C1CCC(N)c2[nH]c3ccc(Br)cc3c21.Cl (stereo not drawn) [Example 25, 6-Bromo-4-isopropyl-2,3,4,9-tetrahydro-1H-carbazol-1-amine Hydrogen Chloride Salt] |  |  |  |  | 8 | 64 | 16 | (4x)
NC1CCCc2c1[nH]c1ccc(C(F)(F)F)cc21 (stereo not drawn) [Example 14, 6-(Trifluoromethyl)-2,3,4,9-tetrahydro-1H-carbazol-1-amine] | 64 (≈ 252 µM) | 64 (≈ 252 µM) | (32x) | 2 |  |  |  | 
NCCNC1CCCc2c1[nH]c1ccc(Br)cc21 (stereo not drawn) [Example 39, N^1-(6-bromo-2,3,4,9-tetrahydro-1H-carbazol-1-yl)ethane-1,2-diamine] | 16 (≈ 51.9 µM) | 32 (≈ 104 µM) |  | 16 |  |  |  | 
CC(C)C1Cc2c([nH]c3ccc(Cl)c(Cl)c23)C(N)C1 (stereo not drawn) [Example 37, 5,6-Dichloro-3-isopropyl-2,3,4,9-tetrahydro-1H-carbazol-1-amine] | 4 (≈ 13.5 µM) | 128 (≈ 431 µM) | (32x) | 4 |  |  |  | 
CC1(C)Cc2c([nH]c3ccc(Br)cc23)C(N)C1 (stereo not drawn) [Example 26, 6-Bromo-3,3-dimethyl-2,3,4,9-tetrahydro-1H-carbazol-1-amine] | 32 (≈ 109 µM) | 64 (≈ 218 µM) | (16x) | 4 |  |  |  | 
CNCC1Cc2c([nH]c3ccc(Br)cc23)C(N)C1 (stereo not drawn) [Example 41, 6-Bromo-3-((methylamino)methyl)-2,3,4,9-tetrahydro-1H-carbazol-1-amine Hydrogen Chloride Salt] | 256 | 128 | (4x) | 64 |  |  |  | 
